Measured values taken from the NIST ThermoML archive (doi:10.1021/je1003065).
Numbers after ± are expanded uncertainties.

Assay: mn = molality of the nth substance listed, in mol/kg
Conditions: Liquid, Vibrating tube method

A mass density (298.15 K, 60024 kPa, m1 = 0.9499) of 885.07 ± 1.8 kg/m3, a mass density (298.15 K, 69784 kPa, m1 = 0.2335) of 847.83 ± 1.8 kg/m3 and a mass density (298.15 K, 69784 kPa, m1 = 0.9499) of 890.31 ± 1.8 kg/m3 were found for `[Br-].[Li+]` [lithium bromide] + CCO in this work. The mass density (298.15 K, 69931 kPa, m1 = 0.5972) was 869.87 ± 1.8 kg/m3, the mass density (298.15 K, 69993 kPa, m1 = 1.462) was 920.05 ± 1.9 kg/m3 and the mass density (298.15 K, 79215 kPa, m1 = 0.9499) was 895.14 ± 1.8 kg/m3. It also gave a mass density (298.15 K, 79970 kPa, m1 = 2.272) of 969.11 ± 1.9 kg/m3, a mass density (298.15 K, 80014 kPa, m1 = 2.833) of 998.77 ± 2 kg/m3 and a mass density (298.15 K, 80151 kPa, m1 = 0.5972) of 875.11 ± 1.8 kg/m3. The mass density (298.15 K, 89921 kPa, m1 = 0.2335) was 857.88 ± 1.8 kg/m3, the mass density (298.15 K, 89926 kPa, m1 = 0.9499) was 900.43 ± 1.9 kg/m3 and the mass density (298.15 K, 89927 kPa, m1 = 2.833) was 1003.47 ± 2 kg/m3. The mass density (298.15 K, 89963 kPa, m1 = 0.5972) was 879.79 ± 1.8 kg/m3, the mass density (298.15 K, 99468 kPa, m1 = 0.2335) was 862.11 ± 1.8 kg/m3 and the mass density (298.15 K, 99739 kPa, m1 = 1.462) was 933.99 ± 1.9 kg/m3. It also gave a mass density (298.15 K, 99874 kPa, m1 = 0.5972) of 884.17 ± 1.9 kg/m3, a mass density (298.15 K, 99968 kPa, m1 = 2.833) of 1008.08 ± 2 kg/m3 and a mass density (298.15 K, 99975 kPa, m1 = 0.9499) of 905.24 ± 1.9 kg/m3. The mass density (298.16 K, 1341 kPa, m1 = 1.462) was 876.32 ± 1.8 kg/m3, the mass density (298.16 K, 9986 kPa, m1 = 2.833) was 958.39 ± 1.9 kg/m3 and the mass density (298.16 K, 20192 kPa, m1 = 0.5972) was 838.95 ± 1.7 kg/m3. For the same compound, the mass density (298.16 K, 39784 kPa, m1 = 0.2335) was 830.01 ± 1.7 kg/m3, the mass density (298.16 K, 49924 kPa, m1 = 2.833) was 983.25 ± 2 kg/m3 and the mass density (298.16 K, 89994 kPa, m1 = 1.462) was 929.76 ± 1.9 kg/m3. The mass density (298.17 K, 9947 kPa, m1 = 1.462) was 882.69 ± 1.8 kg/m3, the mass density (298.17 K, 59942 kPa, m1 = 0.2335) was 842.36 ± 1.7 kg/m3 and the mass density (298.17 K, 69994 kPa, m1 = 3.368) was 1020.58 ± 2 kg/m3. For the same compound, the mass density (298.17 K, 80053 kPa, m1 = 1.462) was 925.1 ± 1.9 kg/m3, the mass density (298.18 K, 2703 kPa, m1 = 3.368) was 980.82 ± 2 kg/m3 and the mass density (298.18 K, 5041 kPa, m1 = 3.368) was 982.47 ± 2 kg/m3. For the same compound, the mass density (298.18 K, 5165 kPa, m1 = 2.272) was 925.09 ± 1.9 kg/m3, the mass density (298.18 K, 9642 kPa, m1 = 2.272) was 928.25 ± 1.9 kg/m3 and the mass density (298.18 K, 9735 kPa, m1 = 3.368) was 985.72 ± 2 kg/m3. It also gave a mass density (298.18 K, 9947 kPa, m1 = 0.5972) of 831.46 ± 1.7 kg/m3, a mass density (298.18 K, 19511 kPa, m1 = 3.368) of 992.17 ± 2 kg/m3 and a mass density (298.18 K, 29936 kPa, m1 = 3.368) of 998.66 ± 2 kg/m3. The mass density (298.18 K, 40157 kPa, m1 = 3.368) was 1004.65 ± 2 kg/m3, the mass density (298.18 K, 49943 kPa, m1 = 3.368) was 1010.11 ± 2 kg/m3 and the mass density (298.19 K, 2166 kPa, m1 = 2.272) was 922.88 ± 1.9 kg/m3. The mass density (298.19 K, 20358 kPa, m1 = 1.462) was 890.05 ± 1.8 kg/m3, the mass density (298.2 K, 20184 kPa, m1 = 2.272) was 935.31 ± 1.9 kg/m3 and the mass density (298.2 K, 59916 kPa, m1 = 3.368) was 1015.42 ± 2 kg/m3. The mass density (313.09 K, 4759 kPa, m1 = 0.5972) was 815.39 ± 1.6 kg/m3, the mass density (313.11 K, 1319 kPa, m1 = 2.272) was 910.08 ± 1.8 kg/m3 and the mass density (313.11 K, 2109 kPa, m1 = 1.462) was 864.85 ± 1.7 kg/m3. It also gave a mass density (313.11 K, 4863 kPa, m1 = 2.272) of 912.94 ± 1.8 kg/m3, a mass density (313.11 K, 9792 kPa, m1 = 0.5972) of 819.49 ± 1.6 kg/m3 and a mass density (313.13 K, 5147 kPa, m1 = 1.462) of 867.25 ± 1.7 kg/m3. The mass density (313.13 K, 19554 kPa, m1 = 0.5972) was 827.15 ± 1.7 kg/m3, the mass density (313.14 K, 5102 kPa, m1 = 2.833) was 943.28 ± 1.9 kg/m3 and the mass density (313.14 K, 9982 kPa, m1 = 2.272) was 916.81 ± 1.8 kg/m3. The mass density (313.14 K, 19956 kPa, m1 = 0.2335) was 804.92 ± 1.6 kg/m3, the mass density (313.14 K, 20135 kPa, m1 = 2.272) was 924.35 ± 1.9 kg/m3 and the mass density (313.14 K, 29993 kPa, m1 = 2.272) was 931.18 ± 1.9 kg/m3. It also gave a mass density (313.14 K, 40450 kPa, m1 = 2.272) of 937.95 ± 1.9 kg/m3, a mass density (313.14 K, 50014 kPa, m1 = 0.2335) of 826.45 ± 1.7 kg/m3 and a mass density (313.14 K, 59926 kPa, m1 = 2.833) of 978.99 ± 2 kg/m3. It also gave a mass density (313.15 K, 1021 kPa, m1 = 2.833) of 940.06 ± 1.9 kg/m3, a mass density (313.15 K, 1045 kPa, m1 = 0.9499) of 833.87 ± 1.7 kg/m3 and a mass density (313.15 K, 2012 kPa, m1 = 0.2335) of 789.9 ± 1.6 kg/m3. It also gave a mass density (313.15 K, 5003 kPa, m1 = 0.9499) of 837.08 ± 1.7 kg/m3, a mass density (313.15 K, 5028 kPa, m1 = 0.2335) of 792.77 ± 1.6 kg/m3 and a mass density (313.15 K, 9909 kPa, m1 = 1.462) of 870.96 ± 1.8 kg/m3. It also gave a mass density (313.15 K, 9978 kPa, m1 = 2.833) of 947 ± 1.9 kg/m3, a mass density (313.15 K, 9985 kPa, m1 = 0.9499) of 841.04 ± 1.7 kg/m3 and a mass density (313.15 K, 19924 kPa, m1 = 0.9499) of 848.66 ± 1.7 kg/m3. It also gave a mass density (313.15 K, 19994 kPa, m1 = 1.462) of 878.53 ± 1.8 kg/m3, a mass density (313.15 K, 29451 kPa, m1 = 2.833) of 960.7 ± 1.9 kg/m3 and a mass density (313.15 K, 29924 kPa, m1 = 0.2335) of 812.49 ± 1.6 kg/m3. It also gave a mass density (313.15 K, 29935 kPa, m1 = 0.9499) of 855.96 ± 1.7 kg/m3, a mass density (313.15 K, 29958 kPa, m1 = 0.5972) of 834.89 ± 1.7 kg/m3 and a mass density (313.15 K, 29979 kPa, m1 = 1.462) of 885.66 ± 1.8 kg/m3. It also gave a mass density (313.15 K, 39844 kPa, m1 = 0.5972) of 841.83 ± 1.7 kg/m3, a mass density (313.15 K, 40021 kPa, m1 = 0.9499) of 862.92 ± 1.8 kg/m3 and a mass density (313.15 K, 49925 kPa, m1 = 1.462) of 898.82 ± 1.8 kg/m3. For the same compound, the mass density (313.15 K, 49925 kPa, m1 = 2.272) was 943.67 ± 1.9 kg/m3, the mass density (313.15 K, 49963 kPa, m1 = 0.5972) was 848.54 ± 1.7 kg/m3 and the mass density (313.15 K, 49968 kPa, m1 = 2.833) was 973.38 ± 1.9 kg/m3. It also gave a mass density (313.15 K, 50035 kPa, m1 = 0.9499) of 869.45 ± 1.8 kg/m3, a mass density (313.15 K, 59623 kPa, m1 = 1.462) of 904.69 ± 1.8 kg/m3 and a mass density (313.15 K, 59831 kPa, m1 = 0.5972) of 854.67 ± 1.8 kg/m3. The mass density (313.15 K, 60002 kPa, m1 = 0.2335) was 832.74 ± 1.7 kg/m3, the mass density (313.15 K, 60047 kPa, m1 = 0.9499) was 875.6 ± 1.8 kg/m3 and the mass density (313.15 K, 69784 kPa, m1 = 0.9499) was 881.21 ± 1.8 kg/m3. It also gave a mass density (313.15 K, 69784 kPa, m1 = 2.833) of 984.26 ± 2 kg/m3, a mass density (313.15 K, 69928 kPa, m1 = 1.462) of 910.56 ± 1.9 kg/m3 and a mass density (313.15 K, 69997 kPa, m1 = 0.5972) of 860.59 ± 1.8 kg/m3. The mass density (313.15 K, 79828 kPa, m1 = 0.5972) was 865.9 ± 1.8 kg/m3, the mass density (313.15 K, 79877 kPa, m1 = 1.462) was 915.87 ± 1.9 kg/m3 and the mass density (313.15 K, 79935 kPa, m1 = 0.9499) was 886.68 ± 1.8 kg/m3. The mass density (313.15 K, 80042 kPa, m1 = 0.2335) was 844.05 ± 1.8 kg/m3, the mass density (313.15 K, 89924 kPa, m1 = 0.2335) was 848.99 ± 1.8 kg/m3 and the mass density (313.15 K, 89925 kPa, m1 = 2.833) was 994.32 ± 2 kg/m3. For the same compound, the mass density (313.15 K, 89926 kPa, m1 = 1.462) was 920.86 ± 1.9 kg/m3, the mass density (313.15 K, 89986 kPa, m1 = 0.9499) was 891.71 ± 1.9 kg/m3 and the mass density (313.15 K, 89993 kPa, m1 = 0.5972) was 870.99 ± 1.8 kg/m3. The mass density (313.15 K, 99841 kPa, m1 = 0.5972) was 875.52 ± 1.9 kg/m3, the mass density (313.15 K, 99954 kPa, m1 = 0.9499) was 896.31 ± 1.9 kg/m3 and the mass density (313.15 K, 99985 kPa, m1 = 0.2335) was 853.58 ± 1.8 kg/m3. For the same compound, the mass density (313.15 K, 99985 kPa, m1 = 2.833) was 999.09 ± 2 kg/m3, the mass density (313.16 K, 10023 kPa, m1 = 0.2335) was 796.94 ± 1.6 kg/m3 and the mass density (313.16 K, 19926 kPa, m1 = 2.833) was 954.23 ± 1.9 kg/m3. For the same compound, the mass density (313.16 K, 39715 kPa, m1 = 1.462) was 892.26 ± 1.8 kg/m3, the mass density (313.16 K, 40032 kPa, m1 = 0.2335) was 819.73 ± 1.7 kg/m3 and the mass density (313.16 K, 59995 kPa, m1 = 2.272) was 949.4 ± 1.9 kg/m3.
